According to patent US8067611B2, “Substituted 1-(thiazolyl)-and 1-(isothiazolyl)pyrazol-4-ylacetic acids, processes for their preparation and their use as herbicides and plant growth regulators” (Bayer CropScience AG, priority 2008, dated 2011):

Experiments:
Assay type in all cases: in vivo
[1] = tested on: weed-grasses and broad-leaved weeds; assay: Post-emergence herbicidal effect, greenhouse pot test; conditions: application rate of 1 kg and less of active substance per hectare, scored after 3 weeks
Description: Seeds of monocotyledonous or dicotyledonous weed plants or crop plants are planted in wood-fiber pots in sandy loam, covered with soil and grown in a greenhouse under good growth conditions. 2 to 3 weeks after sowing, the test plants are treated in the one-leaf stage. The compounds according to the invention, formulated in the form of wettable powders (WP), are then sprayed onto the green plant parts as aqueous suspension or emulsion at a water application rate of 600 I/ha (converted) with the addition of 0.2% of wetting agent. After 3 weeks' standing time of the test plants in the greenhouse under optimum growth conditions, the effect of the preparations is scored visually in comparison with untreated controls (herbicidal effect in percent (%): 100% effect=plants have died, 0% effect=as control plants).

[2] = tested on: Alopecurus myosuroides; assay: Pre-emergence herbicidal effect, greenhouse pot test; conditions: 1.0 kg or 0.32 kg of active substance per hectare, 100% = plants have died
Excerpt: (§1) Seeds of monocotyledonous or dicotyledonous weed plants or crop plants are planted in wood-fiber pots in sandy loam and covered with soil. The compounds (I) according to the invention, formulated in the form of wettable powders (WP), are then applied as aqueous suspension or emulsion at a water application rate of 600 I/ha (converted) with the addition of 0.2% of wetting agent to the surface of the covering soil.
(§2) Following the treatment, the pots are placed in a greenhouse and kept under good growth conditions for the test plants. After about 3 weeks, the effect of the preparations is scored visually in comparison with untreated controls (herbicidal effect in percent (%): 100% effect=plants have died, 0% effect=as control plants).

[3] = tested on: Echinochloa crus galli; assay: as above; conditions: 1.0 kg or 0.32 kg of active substance per hectare, 100% = plants have died
Excerpt: as §1, §2

[4] = tested on: Avena fatua; assay: as above; conditions: 1.0 kg or 0.32 kg of active substance per hectare, 100% = plants have died
Excerpt: as §1, §2

[5] = tested on: Setaria viridis; assay: as above; conditions: 1.0 kg or 0.32 kg of active substance per hectare, 100% = plants have died
Excerpt: as §1, §2

[6] = tested on: harmful plants; assay: as above; conditions: application rate of 1 kg or less of active substance per hectare, scored after about 3 weeks
Excerpt: as §1, §2

Row | SMILES | post-emergence activity against a broad spectrum of weed-grasses and broad-leaved weeds [1] | herbicidal activity [2] [%] | herbicidal activity [3] [%] | herbicidal activity [4] [%] | herbicidal activity [5] [%] | herbicidal pre-emergence activity against a number of harmful plants [6]
1 | COC(=O)Cc1c(C)nn(-c2cncs2)c1-c1cnc(C)cn1 [Compound 8-217] | good post-emergence activity | ≥ 80 | ≥ 80 | ≥ 80 | ≥ 80 | good herbicidal pre-emergence activity
2 | COC(=O)Cc1c(C)nn(-c2cnsc2)c1-c1nc2ccccc2s1 [Compound 5-216] | good post-emergence activity |  |  |  |  | good herbicidal pre-emergence activity
3 | COC(=O)Cc1c(C)nn(-c2ccns2)c1-c1ccc(Br)s1 [Compound 2-68] | good post-emergence activity |  |  |  |  | good herbicidal pre-emergence activity
4 | COC(=O)Cc1c(C)nn(-c2cncs2)c1-c1ccc(-c2ccccc2)cc1 [Compound 8-276] | good post-emergence activity |  |  |  |  | good herbicidal pre-emergence activity
5 | COC(=O)Cc1c(C)nn(-c2cncs2)c1-c1ncc(Cl)cn1 [Compound 8-229] | good post-emergence activity |  |  |  |  | good herbicidal pre-emergence activity
6 | COC(=O)Cc1c(C)nn(-c2cnsc2)c1-c1cc2ccccc2cn1 [Compound 5-240] | good post-emergence activity |  |  |  |  | good herbicidal pre-emergence activity
7 | COC(=O)Cc1c(C)nn(-c2ccns2)c1-c1ccccc1 [Compound 2-2] | good post-emergence activity |  |  |  |  | good herbicidal pre-emergence activity
